In patent US4183848A, “Analgesic polypeptide” (American Home Products Corporation, priority 1977, dated 1980):
Where a SMILES comes first, the peptide text is derived from it. [ ]: non-standard residue; d: D form. Aib = CC(C)(N)C(=O)O

Experiments:
rat tail flick test = rat tail flick test (method of D-Amour and Smith), analgesic activity; type: in vivo
Description: The representative polypeptide of this invention Tyr-D-Ala-Gly-Phe-2-MeAla-NH2, gave the following results in the reference standard rat tail flick test: […]

guinea pig ileum = conditions: cited from earlier work
rats = conditions: injection in the brain ventricle in rats; fully reversible by naloxone; cited from earlier work
[1] = peripheral administration; cited from earlier work
opiate receptor = conditions: brain homogenates; cited from earlier work
mouse vas deferens = conditions: cited from earlier work
[2] = intracerebroventricular administration; cited from earlier work

CC(=O)O.C[C@@H](NC(=O)[C@@H](N)Cc1ccc(O)cc1)C(=O)NCC(=O)N[C@@H](Cc1ccccc1)C(=O)NC(C)(C)C(N)=O [Tyr-D-Ala-Gly-Phe-2-MeAla-NH2, L-Tyrosyl-D-Alanylglycyl-L-Phenylalanyl-2-Methylalaninamide acetate] (H-Y[dA]GF[Aib]-NH2)
No. showing analgesia/No. tested (rat tail flick test; intravenous 1.0 milligram/kilogram, 15 minutes after administration): 6/6
No. showing analgesia/No. tested (rat tail flick test; intravenous 1.0 milligram/kilogram, 30 minutes after administration): 4/6
No. showing analgesia/No. tested (rat tail flick test; intravenous 1.0 milligram/kilogram, 60 minutes after administration): 3/6
No. showing analgesia/No. tested (rat tail flick test; intravenous 2.5 milligram/kilogram, 15 minutes after administration): 5/6
No. showing analgesia/No. tested (rat tail flick test; intravenous 2.5 milligram/kilogram, 30 minutes after administration): 5/6
No. showing analgesia/No. tested (rat tail flick test; intravenous 2.5 milligram/kilogram, 60 minutes after administration): 2/6
No. showing analgesia/No. tested (rat tail flick test; intravenous 5.0 milligram/kilogram, 15 minutes after administration): 5/5
No. showing analgesia/No. tested (rat tail flick test; intravenous 5.0 milligram/kilogram, 30 minutes after administration): 4/5
No. showing analgesia/No. tested (rat tail flick test; intravenous 5.0 milligram/kilogram, 60 minutes after administration): 2/5
No. showing analgesia/No. tested (rat tail flick test; intravenous .5 milligram/kilogram, 15 minutes after administration): 0/6
No. showing analgesia/No. tested (rat tail flick test; intravenous .5 milligram/kilogram, 30 minutes after administration): 1/6
No. showing analgesia/No. tested (rat tail flick test; intravenous .5 milligram/kilogram, 60 minutes after administration): 1/6
No. showing analgesia/No. tested (rat tail flick test; subcutaneous 5.0 milligram/kilogram, 30 minutes after administration): 3/6
No. showing analgesia/No. tested (rat tail flick test; subcutaneous 5.0 milligram/kilogram, 60 minutes after administration): 1/6
No. showing analgesia/No. tested (rat tail flick test; subcutaneous 5.0 milligram/kilogram, 90 minutes after administration): 2/6
No. showing analgesia/No. tested (rat tail flick test; subcutaneous 5.0 milligram/kilogram, 120 minutes after administration): 0/6
No. showing analgesia/No. tested (rat tail flick test; subcutaneous 10.0 milligram/kilogram, 30 minutes after administration): 6/6
No. showing analgesia/No. tested (rat tail flick test; subcutaneous 10.0 milligram/kilogram, 60 minutes after administration): 5/6
No. showing analgesia/No. tested (rat tail flick test; subcutaneous 10.0 milligram/kilogram, 90 minutes after administration): 2/6
No. showing analgesia/No. tested (rat tail flick test; subcutaneous 10.0 milligram/kilogram, 120 minutes after administration): 1/6

H-Tyr-Gly-Gly-Phe-Leu-OH [leucine-enkephalin]
block of electrically evoked contractions (guinea pig ileum): mimic the ability of morphine to block electrically evoked contractions
analgesia (rats): profound analgesia
activity when administered peripherally [1]: inactive
inhibition of stereospecific receptor binding of 3H-naloxone (opiate receptor): inhibit
block of electrically evoked contractions (mouse vas deferens): mimic the ability of morphine to block electrically evoked contractions

H-Tyr-Gly-Gly-Phe-Met-OH [methionine-enkephalin]
block of electrically evoked contractions (guinea pig ileum): mimic the ability of morphine to block electrically evoked contractions
analgesia (rats): profound analgesia
activity when administered peripherally [1]: inactive
inhibition of stereospecific receptor binding of 3H-naloxone (opiate receptor): inhibit
block of electrically evoked contractions (mouse vas deferens): mimic the ability of morphine to block electrically evoked contractions

Tyr-D-Ala-Gly-Phe-D-Leu
activity when administered intracerebroventricularly [2]: activity
